#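 Briefly, cells in 96-well plates were exposed to five compound concentrations for 48 h, and endpoints were estimated by linear interpolation. The concentration for 50% growth inhibition is given as GI50. TGI is the concentration that stops growth completely.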
# Key:
# Experiment in all cases: NCI tumour cell line growth inhibition, 48 h
# EKVX NSCLC = system: EKVX NSCLC
# NCI-H460 lung = system: NCI-H460 lung
# SNB-75 CNS = system: SNB-75 CNS
# A498 renal = system: A498 renal
# ACHN renal = system: ACHN renal
# SK-MEL-28 melanoma = system: SK-MEL-28 melanoma
# SW-620 colon = system: SW-620 colon
# UO-31 renal = system: UO-31 renal
# COLO 205 colon = system: COLO 205 colon
# HOP-62 NSCLC = system: HOP-62 NSCLC
Structure (SMILES),TGI (EKVX NSCLC),TGI (NCI-H460 lung),TGI (SNB-75 CNS),TGI (A498 renal),TGI (ACHN renal),TGI (SK-MEL-28 melanoma),TGI (SW-620 colon),TGI (UO-31 renal),TGI (COLO 205 colon),TGI (HOP-62 NSCLC),GI50 (EKVX NSCLC),GI50 (NCI-H460 lung),GI50 (SNB-75 CNS),GI50 (A498 renal),GI50 (ACHN renal),GI50 (SK-MEL-28 melanoma),GI50 (SW-620 colon),GI50 (UO-31 renal),GI50 (COLO 205 colon),GI50 (HOP-62 NSCLC)
O=C(O)[C@@H]1[C@H](C(=O)O)[C@H](C(=O)O)C[C@@H]1C(=O)O,> 100 µM,> 100 µM,> 100 µM,> 100 µM,> 100 µM,> 100 µM,> 100 µM,> 100 µM,> 100 µM,> 100 µM,–,–,–,–,–,–,–,–,–,–
O=C1C=C(NCCNC(=S)Nc2ccccc2)c2nccc3c2c1nc1ccccc13,> 100 µM,> 100 µM,> 100 µM,> 100 µM,> 100 µM,> 100 µM,> 100 µM,> 100 µM,> 100 µM,> 100 µM,> 100 µM,29.4 µM,> 100 µM,> 100 µM,38.6 µM,> 100 µM,32.2 µM,> 100 µM,9.18 µM,81.7 µM
COc1cc(CCN)c2c(c1OC)SSSSS2,2.59 µM,2.11 µM,2.87 µM,3.64 µM,1.61 µM,3.43 µM,0.283 µM,1.12 µM,0.0783 µM,3.3 µM,1.26 µM,0.767 µM,1.5 µM,1.98 µM,0.45 µM,1.79 µM,0.101 µM,0.262 µM,0.0184 µM,1.81 µM
O=C(c1ccc(Cl)cc1)c1ccc(OCCCCCCCCCCOc2ccc(C(=O)c3ccc(Cl)cc3)cc2)cc1,> 100 µM,> 100 µM,> 100 µM,> 100 µM,> 100 µM,> 100 µM,> 100 µM,> 100 µM,> 100 µM,> 100 µM,–,–,–,–,–,–,–,–,–,–
COc1ccc(Nc2ncc(Br)c(NCCCNC(=O)C3CCC3)n2)cc1,83.9 µM,31.5 µM,12.1 µM,27.2 µM,> 100 µM,> 100 µM,> 100 µM,13.5 µM,30.8 µM,44.8 µM,20.5 µM,8.34 µM,2.98 µM,12.3 µM,13.5 µM,33.4 µM,6.6 µM,2.55 µM,10.6 µM,4.77 µM
O=C([CH-]C(=O)c1ccccc1)c1ccccc1.O=C([CH-]C(=O)c1ccccc1)c1ccccc1.O=C([CH-]C(=O)c1ccccc1)c1ccccc1.[Nd+3].[OH3+],13.9 µM,> 100 µM,7.23 µM,27.3 µM,21.2 µM,30.4 µM,26.4 µM,8.19 µM,25.6 µM,9.96 µM,2.8 µM,3.41 µM,2.91 µM,9 µM,5.93 µM,7.74 µM,4.1 µM,2.85 µM,10.6 µM,2.62 µM
O=C1c2ccc([N+](=O)[O-])cc2-c2c1c1ccccc1c(=O)n2CCCNCCCNCCCn1c2c(c3ccc([N+](=O)[O-])cc3c1=O)C(=O)c1ccccc1-2,32.1 µM,14.6 µM,5.54 µM,8.88 µM,15.9 µM,15.9 µM,3.07 µM,33.8 µM,6.83 µM,12.4 µM,8.76 µM,2.34 µM,0.427 µM,2.05 µM,4.26 µM,3.83 µM,0.81 µM,10.4 µM,1.33 µM,1.85 µM
Oc1cc(O)c(Oc2cccc(O)c2O)c(O)c1,> 100 µM,> 100 µM,> 100 µM,> 100 µM,> 100 µM,> 100 µM,> 100 µM,> 100 µM,> 100 µM,> 100 µM,–,–,–,–,–,–,–,–,–,–
Oc1ccc(C(c2ccc(O)cc2)c2ccc(Cl)cn2)cc1,6.59 µM,> 100 µM,0.451 µM,26.5 µM,22.2 µM,> 100 µM,> 100 µM,> 100 µM,4.97 µM,> 100 µM,0.349 µM,31.6 µM,0.17 µM,0.344 µM,0.427 µM,28 µM,60.7 µM,2.04 µM,0.0416 µM,33.7 µM
CCCn1c(SC)nc(COC(=O)NC)c1COC(=O)NC,> 100 µM,> 100 µM,> 100 µM,> 100 µM,> 100 µM,> 100 µM,> 100 µM,> 100 µM,> 100 µM,> 100 µM,–,–,–,–,–,–,–,–,–,–
C1C[OH+]CC[OH+]CCNCC[OH+]CC[OH+]CCN1.[Cl-].[Pt+4],> 100 µM,–,> 100 µM,> 100 µM,> 100 µM,> 100 µM,> 100 µM,> 100 µM,> 100 µM,> 100 µM,> 100 µM,–,> 100 µM,> 100 µM,> 100 µM,> 100 µM,57.3 µM,> 100 µM,> 100 µM,> 100 µM
O=C(O)C1C2CCC(O2)C1C(=O)N1CCCCC1 (centres undefined),29.2 µM,39.2 µM,17.2 µM,4.46 µM,17 µM,19.5 µM,15 µM,46 µM,3.87 µM,35.8 µM,–,–,–,–,–,–,–,–,–,–
O=[N+]([O-])c1ccc(S(=O)Cc2ccccc2)c([N+](=O)[O-])c1 (centres undefined),26.6 µM,33.2 µM,25.2 µM,25.7 µM,3.07 µM,4.13 µM,2.65 µM,2.91 µM,3.05 µM,23.8 µM,12.8 µM,16.4 µM,12 µM,13 µM,1.62 µM,1.89 µM,1.33 µM,1.47 µM,1.68 µM,11.6 µM
COc1ccccc1/C=C/[N+](=O)[O-],58.3 µM,4.35 µM,44.5 µM,5.03 µM,3.84 µM,3.66 µM,3.19 µM,2.8 µM,4.52 µM,7.12 µM,15.3 µM,2.03 µM,3.57 µM,1.93 µM,2.01 µM,1.62 µM,1.56 µM,1.45 µM,2.12 µM,2.57 µM
C=C1SC(=Nc2c(C)cc(C)cc2C)N(C(=O)c2sc3ccccc3c2Cl)C12CCCCC2,> 100 µM,> 100 µM,> 100 µM,> 100 µM,> 100 µM,> 100 µM,> 100 µM,> 100 µM,> 100 µM,> 100 µM,38.6 µM,> 100 µM,> 100 µM,> 100 µM,> 100 µM,> 100 µM,31.1 µM,63.8 µM,> 100 µM,> 100 µM
CC1CCP(=O)(c2ccccc2)c2ccccc21 (centres undefined),> 100 µM,80.3 µM,> 100 µM,> 100 µM,> 100 µM,> 100 µM,–,> 100 µM,> 100 µM,> 100 µM,–,–,–,–,–,–,–,–,–,–
CC(=O)NNc1nc(C)c(C(=O)NNC(=O)C(=O)Nc2c(C)cccc2C)s1,> 100 µM,> 100 µM,> 100 µM,> 100 µM,> 100 µM,> 100 µM,> 100 µM,> 100 µM,> 100 µM,> 100 µM,–,–,–,–,–,–,–,–,–,–
COc1ccccc1/C=C1\CCC(CCN(C)C)(C2=CCCC2)C1=O (centres undefined),18.6 µM,31.4 µM,54.7 µM,32.1 µM,34.1 µM,32.7 µM,32.1 µM,31.4 µM,22.1 µM,34.5 µM,–,–,–,–,–,–,–,–,–,–
CCN(CC)CCNc1ccc([N+](=O)[O-])c2sc3ccccc3c(=O)c12,2.53 µM,1.96 µM,4.78 µM,2.16 µM,4.44 µM,3.3 µM,1.93 µM,1.66 µM,3.58 µM,3.64 µM,0.692 µM,0.443 µM,1.65 µM,0.591 µM,0.646 µM,1.77 µM,0.478 µM,0.284 µM,1.35 µM,1.27 µM
CCc1n(Cc2ccc3ccccc3n2)cc[n+]1Cc1ccc2ccccc2n1,41.5 µM,11.9 µM,2.4 µM,9.38 µM,> 100 µM,14.7 µM,30.2 µM,> 100 µM,0.705 µM,31.5 µM,0.343 µM,0.511 µM,0.141 µM,0.303 µM,28 µM,0.196 µM,1.39 µM,21.2 µM,0.0596 µM,4.66 µM
O=C(/C=C/C12c3ccccc3C(c3ccccc31)C1C(=O)N(c3ccccc3)C(=O)C12)c1ccccc1 (centres undefined),> 100 µM,4.69 µM,> 100 µM,2.2 µM,4.08 µM,7.09 µM,> 100 µM,–,4.85 µM,14.6 µM,2.09 µM,1.92 µM,2.39 µM,0.763 µM,1.63 µM,2.48 µM,2.74 µM,–,2.11 µM,3.23 µM
COc1ccc(-c2oc3c(OC)c(OC)c(OC)c(O)c3c(=O)c2OC)cc1OC,> 100 µM,> 83.7 µM,13.2 µM,> 64.8 µM,> 100 µM,> 100 µM,> 66.1 µM,> 78.7 µM,> 73.1 µM,> 100 µM,–,–,–,–,–,–,–,–,–,–
CC1OC(OCC2OC(Oc3c(-c4ccc(O)cc4)oc4cc(O)cc(O)c4c3=O)C(OC3OC(C)C(O)C(O)C3O)C(O)C2O)C(O)C(O)C1O (centres undefined),> 100 µM,> 100 µM,> 100 µM,> 100 µM,> 100 µM,> 100 µM,> 62.4 µM,> 100 µM,> 72.7 µM,> 100 µM,–,–,–,–,–,–,–,–,–,–
CCCNCCCC(NC(C)=O)C(=O)NCc1ccccc1 (centres undefined),> 100 µM,> 100 µM,> 100 µM,> 100 µM,> 100 µM,> 100 µM,> 100 µM,> 100 µM,> 100 µM,> 100 µM,–,–,–,–,–,–,–,–,–,–
COc1ccc2c(c1)C(=O)c1c-2n(CCCN=[N+]=[N-])c(=O)c2cc(N(C)C)ccc12,> 100 µM,> 100 µM,56.2 µM,> 100 µM,> 100 µM,> 100 µM,> 100 µM,> 100 µM,> 100 µM,> 100 µM,> 100 µM,> 100 µM,7.21 µM,> 100 µM,> 100 µM,> 100 µM,> 100 µM,> 100 µM,> 100 µM,10.3 µM
CC1(C)CC[C@H](Nc2ncc(C(F)(F)F)c(-c3c[nH]c4c(P(C)(C)=O)c(C#N)ccc34)n2)CN1,9.27 µM,11.5 µM,10.6 µM,8.85 µM,9.27 µM,9.2 µM,13.2 µM,5.11 µM,0.773 µM,6.69 µM,< 0.0113 µM,< 0.01 µM,0.774 µM,1.76 µM,0.0721 µM,< 0.01 µM,0.0225 µM,0.377 µM,< 0.01 µM,0.0132 µM
FC(F)(F)c1cc(-c2nnc3n2N=C(N2CCCC2)CS3)cc(C(F)(F)F)c1,> 50 µM,> 50 µM,24.4 µM,> 50 µM,> 50 µM,> 50 µM,> 50 µM,> 50 µM,> 50 µM,> 50 µM,> 50 µM,7.15 µM,7.12 µM,> 50 µM,10 µM,> 50 µM,> 50 µM,> 50 µM,> 50 µM,16.7 µM
CCCCS(=O)CCC(N)C(=O)O (centres undefined),> 100 µM,> 100 µM,> 100 µM,> 100 µM,> 100 µM,> 100 µM,> 100 µM,> 100 µM,> 100 µM,> 100 µM,–,–,–,–,–,–,–,–,–,–
Clc1ccc(Cc2nc3ccccc3s2)c(Cl)c1,42.1 µM,41.4 µM,34.5 µM,41.5 µM,34.9 µM,33.1 µM,46.4 µM,30 µM,31.5 µM,32.9 µM,–,–,–,–,–,–,–,–,–,–
CCCCCCCCCCCCCCN,> 100 µM,> 100 µM,> 100 µM,> 100 µM,> 100 µM,> 100 µM,> 100 µM,–,> 100 µM,> 100 µM,–,–,–,–,–,–,–,–,–,–

# Reference: PubChem BioAssay (NCI)
